Where “and” joins values, the source holds several entries; their conditions need not be identical. Equal values may be shown once.
How the values were obtained:
[1] = molecular target: T1, binding between the spike protein of SARS-CoV-2 and the ACE2 protein (Severe acute respiratory syndrome coronavirus 2, UniProt P0DTC2)
[2] = molecular target: T1, binding between the spike protein of SARS-CoV-2 and the ACE2 protein; remark: listed apart in the source

[O][Cl+][O-] [Chlorine Dioxide, chlorine dioxide]
binding between the spike protein and the ACE2 protein [1]: significantly reduced
Luminescence Intensity (counts/sec × 1000, average ± standard deviation, n = 3) [2]: 1322 ± 45 counts/sec × 1000 and 1072 ± 47 counts/sec × 1000
